Key:
Format in all cases: physicochemical
[1] = Solubility / miscibility measurement (NMR method, internal standard); conditions: for solubility: organic solvent or mixture, NMR method
Description: The MEEPRT-TFSI monomer is a viscous liquid at room temperature, the miscibility was determined in acetonitrile and 0.1 M TEATFSI in acetonitrile. In both solvents, it is miscible when mixed with 1:10, 10:1, and 1:1 ratio by wt. of acetonitrile:redoxomers. Solubility of redoxomers were determined by NMR method using 1,4-bis(trifluoromethyl)benzene as an internal standard.

[2] = Cross-over experiments in custom-built H-cell with FAPQ-375-PP membrane; conditions: 0.1 M redoxomer in anhydrous acetonitrile; two layers FAPQ-375-PP membrane; CV of blank side up to 24 h
Description: We compared cross-over fractions of our newly synthesized redoxomers with our previous redoxomers such as MEEPT and EPRT-TFSI using a custom-built H-cell. A stack of two layer of FAPQ-375-PP membrane pre-soaked in acetonitrile for 24 h was used as membrane between two compartments of H-cell. For each set of experiment, a 0.1 M solution of redoxomer in anhydrous acetonitrile on the left side and acetonitrile (blank solution) on the right side. The cross over fractions were determined by cyclic voltammetry of the solution from the blank side in 0 h, 2 h, 4 h, 8 h, 12 h, and 24 h in a argon-filled glovebox.

[3] = Cyclic voltammetry of monomer and dimer; conditions: for 1st oxidation potential / ipa/ipc / peak separation: 1 mM in 0.1 M TEABF4/ACN; for redox event (number of electrons, reversibility) / oxidation potential: 10 mM solution; for redox event (number of electrons, reversibility): cyclic voltammetry; for ipa/ipc / peak separation: 1st oxidation; for oxidation potential: referenced to Fc/Fc+, glassy carbon working electrode
Description: The electrochemical stability and reversibility of redox-events were determined by cyclic voltammetry experiments, which were carried out in a CH Instrument potentiostat with glassy carbon electrode as a working electrode, Pt-wire electrode as a counter electrode and a silver electrode as a reference electrode. […]

SMILES | miscibility of radical cations ([1]; in acetonitrile, 1:1, 10:1 and 1:10 by wt.) | cross over fraction [2] | miscibility ([1]; in 0.1 M TEATFSI in acetonitrile, 1:10, 10:1 and 1:1 ratio by wt.) | miscibility ([1]; in acetonitrile, 1:10, 10:1 and 1:1 ratio by wt. acetonitrile:redoxomers, room temperature) | 1st oxidation potential [3] [V] | redox event (number of electrons, reversibility) [3] | ipa/ipc [3] | peak separation [3] [mV] | oxidation potential [3] | solubility ([1]; in 0.1 M TEATFSI in acetonitrile) [mM] | solubility ([1]; in acetonitrile) [mM]
CC(C[N+]1c2ccccc2Sc2ccccc21)[N+](C)(C)CCOCCOCC[N+](C)(C)C(C)C[N+]1c2ccccc2Sc2ccccc21 (stereo not drawn) [dimer radical cation] | completely miscible |  |  |  |  |  |  |  |  |  | 
COCCOCCN1c2ccccc2Sc2ccccc21 [MEEPT, reference compound] |  | 0.0471 |  |  |  |  |  |  |  |  | 
COCCOCC[N+](C)(C)C(C)CN1c2ccccc2Sc2ccccc21 (stereo not drawn) [MEEPRT-TFSI] |  | 0.0346 | miscible | miscible | 0.54 | single electron reversible redox reaction | 1.06 | 59 | 0.54 V |  | 
CC(CN1c2ccccc2Sc2ccccc21)[N+](C)(C)CCOCCOCC[N+](C)(C)C(C)CN1c2ccccc2Sc2ccccc21 (stereo not drawn) [EEEPRT-TFSI2] |  | 0.0037 |  |  | 0.54 | two-electron reversible redox event | 1.06 | 59 | same potential | 1200 | 1600

Reference: patent US20240282989A1, “PHENOTHIAZINE DERIVATIVES AND REDOX-FLOW BATTERIES” (University of Kentucky Research Foundation, priority 2023, published 2024)
